We go through 8 molecules from PubChem BioAssay AID1963853 (Molecular Pharmacology Branch, DTP, NCI, 2024).

This experiment has as its system 266295-075-R-J1-PDC spheroid viability. The experiment in a line: Anticancer human tumor 266295-075-R-J1-PDC patient-derived head and neck squamous carcinoma cell line growth inhibition [POLQ]. The note with it: spheroids with HUVEC and MSC; for viability, T/C: stronger effect = lower value. The method, boiled down:
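Complex spheroid viability model combining PDC tumour cells with endothelial (HUVEC) and MSC stromal cells. Novobiocin, ART-558 or RP6685 were tested singly and in combination with standard and investigational anticancer drugs. Each was titrated in half-log steps from near clinical Cmax, or from 10 microM where Cmax was unknown.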

Values joined by “and” are separate entries in the source; they are usually repeats but may differ in a detail not shown here. Equal values may be shown once.

What is called viability, T/C is the ratio of treated to control. In general, IC50 refers to the concentration that gives 50% inhibition.
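Also: spheroids exposed to compounds for seven days before readout.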

Turning to `CCc1c2c(nc3ccc(O)cc13)-c1cc3c(c(=O)n1C2)COC(=O)[C@]3(O)CC`, the viability, T/C reads like this: (compound 0.00316 µM) 84.2% and 91.3% and 93.2%; (compound 0.01 µM) 77.4% and 78.1% and 89.5%; (compound 0.0316 µM) 71.7% and 92.1% and 88.6%; (compound 0.1 µM) 87% (2×) and 97.7%; (compound 0.316 µM) 95.2% and 104% and 109%; (compound 1 µM) 71.8% (2×) and 91.9%. For the same molecule, the half-inhibitory concentration (IC50) (curve of compound) is above 1000 nM.

`Cn1ncnc1[C@H]1c2n[nH]c(=O)c3cc(F)cc(c23)N[C@@H]1c1ccc(F)cc1` + Nc1ccc(C#CCN(C(=O)Cc2ncc(C(F)(F)F)cc2C(F)(F)F)c2ccc(F)cc2)nn1: the half-maximal inhibitory concentration (IC50) is above 100 nM (curve of first compound, second compound 0.0316 µM); above 100 nM (curve of first compound, second compound 0.1 µM); above 100 nM (curve of first compound, second compound 0.316 µM); above 100 nM (curve of first compound, second compound 1 µM); above 100 nM (curve of first compound, second compound 3.16 µM); above 100 nM (curve of first compound, second compound 10 µM). Also, the viability, T/C is 86.1% (second compound 0.0316 µM, first compound 0.000316 µM); 95.8% (second compound 0.0316 µM, first compound 0.001 µM); 89.1% (second compound 0.0316 µM, first compound 0.00316 µM); 92.1% (second compound 0.0316 µM, first compound 0.01 µM); 79.7% (second compound 0.0316 µM, first compound 0.0316 µM); 85.3% (second compound 0.0316 µM, first compound 0.1 µM). For the same molecule, the viability, T/C (second compound 0.1 µM, first compound 0.000316 µM) was 97.9%; the viability, T/C (second compound 0.1 µM, first compound 0.001 µM) was 107%; the viability, T/C (second compound 0.1 µM, first compound 0.00316 µM) is 91.8%; the viability, T/C (second compound 0.1 µM, first compound 0.01 µM) is 101%; the viability, T/C (second compound 0.1 µM, first compound 0.0316 µM) was 88.5%; the viability, T/C (second compound 0.1 µM, first compound 0.1 µM) is 101%. Besides, the viability, T/C runs as follows: (second compound 0.316 µM, first compound 0.000316 µM) 110%; (second compound 0.316 µM, first compound 0.001 µM) 114%; (second compound 0.316 µM, first compound 0.00316 µM) 92.1%; (second compound 0.316 µM, first compound 0.01 µM) 82.7%; (second compound 0.316 µM, first compound 0.0316 µM) 93%; (second compound 0.316 µM, first compound 0.1 µM) 99.4%. Besides, the viability, T/C runs as follows: (second compound 1 µM, first compound 0.000316 µM) 105%; (second compound 1 µM, first compound 0.001 µM) 96.3%; (second compound 1 µM, first compound 0.00316 µM) 78.6%; (second compound 1 µM, first compound 0.01 µM) 99%; (second compound 1 µM, first compound 0.0316 µM) 105%; (second compound 1 µM, first compound 0.1 µM) 69.7%. The viability, T/C was 103% (second compound 3.16 µM, first compound 0.000316 µM); 101% (second compound 3.16 µM, first compound 0.001 µM); 98.5% (second compound 3.16 µM, first compound 0.00316 µM); 83.8% (second compound 3.16 µM, first compound 0.01 µM); 87.9% (second compound 3.16 µM, first compound 0.0316 µM); 87.6% (second compound 3.16 µM, first compound 0.1 µM). Moreover, the viability, T/C was 91.6% (second compound 10 µM, first compound 0.000316 µM); 103% (second compound 10 µM, first compound 0.001 µM); 110% (second compound 10 µM, first compound 0.00316 µM); 104% (second compound 10 µM, first compound 0.01 µM); 88.5% (second compound 10 µM, first compound 0.0316 µM); 122% (second compound 10 µM, first compound 0.1 µM).

For `COc1ccc([C@@H](O)c2cc(-c3ncnc4cc(N5CCOCC5)ccc34)c(F)cc2Cl)nn1`, the viability, T/C is 96.7% and 96.6% and 100% (compound 0.0316 µM); 89.4% and 101% and 98% (compound 0.1 µM); 84.6% and 83% and 84% (compound 0.316 µM); 60.7% and 73.9% and 67.8% (compound 1 µM); 44.7% and 71.7% and 51.1% (compound 3.16 µM); 39.7% and 44.2% and 39.9% (compound 10 µM). Moreover, under “curve of compound”, the IC50 is 2170 nM and 8030 nM and 3390 nM.

Turning to `COc1cccc(OCCCN)c1-c1cc(Nc2cnc(C#N)cn2)n[nH]1`, the viability, T/C is 109% and 97% and 97.8% (compound 0.00316 µM); 88.7% and 92.5% and 82.9% (compound 0.01 µM); 70.5% and 72.5% and 94.9% (compound 0.0316 µM); 77.6% and 81.7% and 73.8% (compound 0.1 µM); 73.2% and 70% and 74.8% (compound 0.316 µM); 85% and 73.7% and 71.7% (compound 1 µM). Also, the IC50 (curve of compound) is above 1000 nM.

For `O=c1[nH]cc(F)c(=O)[nH]1`, the viability, T/C is 98.7% and 96% and 115% (compound 0.0316 µM); 89.9% and 91.2% and 95.8% (compound 0.1 µM); 86.7% and 97.9% and 89.4% (compound 0.316 µM); 89.8% and 116% and 102% (compound 1 µM); 80.7% and 102% and 94.3% (compound 3.16 µM); 89.4% and 89% and 84.3% (compound 10 µM). Also, the IC50 (curve of compound) was above 10000 nM.

For the molecule `C=CCn1c(=O)c2cnc(Nc3ccc(N4CCN(C)CC4)cc3)nc2n1-c1cccc(C(C)(C)O)n1`, the viability, T/C by setting is: (compound 0.00316 µM) 98.5% and 82.4% and 90.4%; (compound 0.01 µM) 86.6% and 97.5% and 99.7%; (compound 0.0316 µM) 102% and 93.3% and 99.6%; (compound 0.1 µM) 127% and 114% and 84.3%; (compound 0.316 µM) 83% and 93.8% and 89.9%; (compound 1 µM) 70% and 70.6% and 63.8%. Moreover, for the setting “curve of compound”, the IC50 was above 1000 nM.

On to `CC1COCCN1c1cc(-c2ccnn2C)c2ccnc(-c3ccn[nH]3)c2n1` (stereo unspecified), for which the viability, T/C is, setting by setting: (compound 0.0316 µM) 91% and 92.4% and 98.3%; (compound 0.1 µM) 70.7% and 81.1% and 80.7%; (compound 0.316 µM) 62.5% and 67.2% and 69.4%; (compound 1 µM) 45.2% and 52.3% and 59.2%; (compound 3.16 µM) 47.1% and 49% and 53.5%; (compound 10 µM) 36.6% and 36.9% and 32%. The concentration for half-maximal inhibition (IC50) (curve of compound) is 965 nM and 1850 nM and 2430 nM.

In the case of `CCc1cc2c(N3CCc4c(cc(Cn5ccnc5)cc4-c4cn(C)nc4C(F)(F)F)C3=O)cc(C)nc2c(OC)n1`, the viability, T/C (compound 0.0316 µM) was 98.5% and 103% and 90.3%; the viability, T/C (compound 0.1 µM) was 95.8% and 103% and 98.5%; the viability, T/C (compound 0.316 µM) is 91.9% and 89.5% and 109%; the viability, T/C (compound 1 µM) is 120% and 97% and 110%; the viability, T/C (compound 3.16 µM) was 123% and 113% and 127%; the viability, T/C (compound 10 µM) was 128% (2×) and 130%. For the same molecule, the half-maximal inhibitory concentration (IC50) (curve of compound) is above 10000 nM.
